In US20180153995A1, “USE OF ANTIMICROBIAL POLYMERS FOR RE-SENSITIZATION OF MICROORGANISMS UPON EMERGENCE OF RESISTANCE TO ANTI-MICROBIAL AGENTS” (Technion Research & Development Foundation Limited, priority 2008, published 2018):
Where two headings read alike, the source gives them in different places.

How the values were obtained:
P. mirabilis 1285 [1] = format: cell-based, Proteus mirabilis; conditions: no polymer (None), Table 12
Protocol: (§1) MICs were determined by microdilution susceptibility testing in 96-well plates (by Nunc) using inocula of 10^5 bacteria per ml. Cell populations were evaluated by optical density measurements at 620 nm and were calibrated against a set of standards. Hundred (100) μl of a bacterial suspension were added to 100 μl of culture medium (control) or to 100 μl of culture medium containing various polymer concentrations in 2-fold serial dilutions. Inhibition of proliferation was determined by optical density measurements at 620 nm after an incubation period of 24 hours at 37° C.
100 μl of a bacterial suspension were added to 100 μl of culture medium (control) or to 100 μl of culture medium containing various antibiotic and C14(9-ene)KKNC12KNH2 (SEQ ID NO: 5) concentrations in 2-fold serial dilutions. Inhibition of proliferation was determined by optical density measurements at 620 nm after an incubation period of 24 hours at 37° C.

E. coli AG100/ks = assay: Antibiotic MIC with or without sub-MIC polymer (Tables 20, 21); format: cell-based, Escherichia coli
P. aeruginosa 8732 = assay: Antibiotic MIC by microdilution with or without sub-MIC polymer; format: cell-based, Pseudomonas aeruginosa
Protocol: as §1
Inhibition of proliferation was determined by optical density measurements at 620 nm after an incubation period of 24 hours at 37° C.

[2] = tested on: E. coli K-12 efflux knockout mutant; format: cell-based, Escherichia coli; conditions: E. coli AG100A (efflux−)
In short: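 Broth microdilution, inocula 10^5 bacteria/ml, 24 h at 37 °C. Growth read as OD620 against calibration standards.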

P. mirabilis 1285 [3] = format: cell-based, Proteus mirabilis
S. aureus 15819 = assay: Antibiotic MIC by microdilution with or without sub-MIC polymer; format: cell-based, Staphylococcus aureus; conditions: S. aureus 15819
Protocol: MICs were determined by microdilution susceptibility testing in 96-well plates (Nunc) using inocula of 10^5 bacteria per ml. One hundred (100) μl of a bacterial suspension were added to 100 μl of culture medium (control) or to 100 μl of culture medium containing various antibiotic and C12(5-ene)KKNC12KNH2 (SEQ ID NO: 2) concentrations in 2-fold serial dilutions. Inhibition of proliferation was determined by optical density measurements at 620 nm after an incubation period of 24 hours at 37° C.

E. coli AG100 = assay: Antibiotic MIC with or without sub-MIC polymer (Tables 20, 21); format: cell-based, Escherichia coli
MRSA 15852 = format: cell-based, Staphylococcus aureus; conditions: S. aureus 15852
Protocol: The fractionary inhibitory (FIC) concentration index for combinations of two antimicrobial agents was calculated as follows: FIC index=FICA+FICB=A/MICA+B/MICB where A and B are the MIC values of agent A and agent B in the combination, MICA and MICB are the MICs of agent A and agent B alone, and FICA and FICB are the FICs of agent A and agent B.
The FIC indexes were interpreted as follows: less than 0.5 indicates a clear re-sensitizing effect; from 0.5 to 4 indicates a marginal or null re-sensitizing effect; and over 4 indicates antagonism.

[4] = +¼ MIC (1.6 μM) C12(5-ene)KKNC12KNH2
[5] = +½ MIC (3.12 μM) C12(5-ene)KKNC12KNH2
[6] = +⅓ MIC (2.1 μM) C12(5-ene)KKNC12KNH2

CCN1CCN(C(=O)N[C@@H](C(=O)N[C@@H]2C(=O)N3[C@@H]2SC(C)(C)[C@@H]3C(=O)O)c2ccccc2)C(=O)C1=O [Piperacillin, piperacillin]
8 µg/mL: Antibiotic MIC (S. aureus 15819; [6])
256 µg/mL: Antibiotic MIC (P. aeruginosa 8732) | Antibiotic MIC (P. aeruginosa 8732; P. aeruginosa 8732, +½ MIC (3.12 μM) C16(9-ene)KKNC12KNH2) | Antibiotic MIC (P. aeruginosa 8732; P. aeruginosa 8732, +⅓ MIC (2.1 μM) C16(9-ene)KKNC12KNH2) | Antibiotic MIC (P. aeruginosa 8732; P. aeruginosa 8732, no polymer (None), Table 10) | Antibiotic MIC (MRSA 15852; +¼ MIC (1.6 μM) C12KKNC12KNH2) | Antibiotic MIC (MRSA 15852; +½ MIC (3.12 μM) C12KKNC12KNH2) | Antibiotic MIC (MRSA 15852; +⅓ MIC (2.1 μM) C12KKNC12KNH2) | Antibiotic MIC (MRSA 15852; no polymer (None), Table 11)
1 to 2 µg/mL: Antibiotic MIC in presence of C12K(NC8K)5NH2 (SEQ ID NO: 3), +¼ MIC (E. coli AG100; polymer at ¼ of its MIC)
512 µg/mL: Antibiotic MIC (P. mirabilis 1285 [1]) | Antibiotic MIC (P. mirabilis 1285 [3]; +¼ MIC (1.6 μM) C12K(KNC12K)2NH2) | Antibiotic MIC (P. mirabilis 1285 [3]; +½ MIC (3.12 μM) C12K(KNC12K)2NH2) | Antibiotic MIC (P. mirabilis 1285 [3]; +⅓ MIC (2.1 μM) C12K(KNC12K)2NH2)
4 µg/mL: Antibiotic MIC (S. aureus 15819; [5]) | Antibiotic MIC (S. aureus 15819; +½ MIC (3.12 μM) C12K(KNC12K)3NH2) | Antibiotic MIC (S. aureus 15819; +½ MIC (3.12 μM) C12KKNC12KNH2) | Antibiotic MIC (S. aureus 15819; +⅓ MIC (2.1 μM) C12K(KNC12K)3NH2)
2 µg/mL: Antibiotic MIC, None (E. coli AG100; antibiotic alone (Table 20)) | Antibiotic MIC, None (E. coli AG100; antibiotic alone (Table 21)) | Antibiotic MIC in presence of C12K(NC8K)7NH2 (SEQ ID NO: 4), +¼ MIC (E. coli AG100; polymer at ¼ of its MIC)
8 to 16 µg/mL: Antibiotic MIC (S. aureus 15819; [4]) | Antibiotic MIC (S. aureus 15819; +⅓ MIC (2.1 μM) C12KKNC12KNH2)
0.5 µg/mL: Antibiotic MIC in presence of C12K(NC8K)5NH2 (SEQ ID NO: 3), +½ MIC (E. coli AG100; polymer at ½ of its MIC) | Antibiotic MIC in presence of C12K(NC8K)7NH2 (SEQ ID NO: 4), +½ MIC (E. coli AG100; polymer at ½ of its MIC)
>512-512 μg/ml: Antibiotic MIC in presence of C12K(NC8K)5NH2 (SEQ ID NO: 3), +½ MIC (E. coli AG100/ks; polymer at ½ of its MIC) | Antibiotic MIC in presence of C12K(NC8K)7NH2 (SEQ ID NO: 4), +½ MIC (E. coli AG100/ks; polymer at ½ of its MIC)
1 µg/mL: Antibiotic MIC in presence of C12K(NC8K)5NH2 (SEQ ID NO: 3), +⅓ MIC (E. coli AG100; polymer at ⅓ of its MIC) | Antibiotic MIC in presence of C12K(NC8K)7NH2 (SEQ ID NO: 4), +⅓ MIC (E. coli AG100; polymer at ⅓ of its MIC)
128 µg/mL: Antibiotic MIC (MRSA 15852; [4]) | Antibiotic MIC (MRSA 15852; [5]) | Antibiotic MIC (MRSA 15852; [6]) | Antibiotic MIC (MRSA 15852; no polymer (None), Table 8)
<0.13 µg/mL: Antibiotic MIC, None ([2]; antibiotic alone (Table 16)) | Antibiotic MIC, None ([2]; antibiotic alone (Table 17)) | Antibiotic MIC in presence of C12K(NC8K)7NH2 (SEQ ID NO: 4), +¼ MIC ([2]; polymer at ¼ of its MIC (Table 16)) | Antibiotic MIC in presence of C12K(NC8K)7NH2 (SEQ ID NO: 4), +½ MIC ([2]; polymer at ½ of its MIC (Table 16)) | Antibiotic MIC in presence of C12K(NC8K)7NH2 (SEQ ID NO: 4), +⅓ MIC ([2]; polymer at ⅓ of its MIC (Table 16)) | Antibiotic MIC in presence of the OAK, +¼ MIC ([2]; the OAK at ¼ of its MIC (Table 17)) | Antibiotic MIC in presence of the OAK, +½ MIC ([2]; the OAK at ½ of its MIC (Table 17)) | Antibiotic MIC in presence of the OAK, +⅓ MIC ([2]; the OAK at ⅓ of its MIC (Table 17))
16 µg/mL: Antibiotic MIC (S. aureus 15819; +¼ MIC (1.6 μM) C12KKNC12KNH2) | Antibiotic MIC (S. aureus 15819; no polymer (None), Table 8)
>512 µg/mL: Antibiotic MIC, None (E. coli AG100/ks; antibiotic alone (Table 20)) | Antibiotic MIC, None (E. coli AG100/ks; antibiotic alone (Table 21)) | Antibiotic MIC in presence of C12K(NC8K)5NH2 (SEQ ID NO: 3), +¼ MIC (E. coli AG100/ks; polymer at ¼ of its MIC) | Antibiotic MIC in presence of C12K(NC8K)7NH2 (SEQ ID NO: 4), +¼ MIC (E. coli AG100/ks; polymer at ¼ of its MIC) | Antibiotic MIC in presence of C12K(NC8K)5NH2 (SEQ ID NO: 3), +⅓ MIC (E. coli AG100/ks; polymer at ⅓ of its MIC) | Antibiotic MIC in presence of C12K(NC8K)7NH2 (SEQ ID NO: 4), +⅓ MIC (E. coli AG100/ks; polymer at ⅓ of its MIC)
32 µg/mL: Antibiotic MIC (S. aureus 15819; no polymer (None), Table 11) | Antibiotic MIC (S. aureus 15819; no polymer (None), Table 13)
